Source: the supplement of paper PMC12137928
Where a name gives a salt, the structure may show the parent alone.

Experiments:
HCT116 [1] = assay: efficacy (maximum % inhibition of viability vs DMSO); higher = more cytotoxic; conditions: 72 h
Method in brief: (§1)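 For IC50 and maximal efficacy, four-parameter Hill fits were used. Input values were CellTiter-Glo luminescence from HCT116 cells seeded at 250 per well in 1536-well plates, normalized to vehicle (0%) and positive control (-100%). Pattern correction followed normalization.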

HCT116 [2] = conditions: 72 h
Method in brief: as §1

Row | SMILES | IC50 cell viability (HCT116 [2]; ICRF193 0 nM) | IC50 cell viability (HCT116 [2]; ICRF193 200 nM) | efficacy (HCT116 [1]; ICRF193 200 nM) | efficacy (HCT116 [1]; ICRF193 0 nM)
1 | C/C=C(/C)C(=O)O[C@H]1C(C)=C[C@]23C(=O)[C@@H](C=C(CO)[C@@H](O)[C@]12O)[C@H]1[C@@H](C[C@H]3C)C1(C)C [Ingenol mebutate] | > 45.8 µM | 23.1 µM | 60.3% | 
2 | CC(=O)S[C@@H]1CC2=CC(=O)CC[C@]2(C)[C@H]2CC[C@@]3(C)[C@@H](CC[C@@]34CCC(=O)O4)[C@H]12 [Spironolactone] | 16.4 µM | 20.6 µM | 73.6% | 50.9%
3 | C=C1CC[C@H](O)C/C1=C/C=C1\CCC[C@]2(C)[C@@H]([C@H](C)CCCC(C)C)CC[C@@H]12 [CHOLECALCIFEROL] | 23.1 µM | 23.1 µM | 79.4% | 87.9%
4 | Cn1cnc([N+](=O)[O-])c1Sc1ncnc2[nH]cnc12 [Azathioprine] | 2.91 µM | 3.66 µM | 85.9% | 77.4%
5 | CC[C@@]1(O)C[C@H](O[C@H]2C[C@H](N(C)C)[C@H](O[C@H]3C[C@H](O)[C@H](O[C@H]4CCC(=O)[C@H](C)O4)[C@H](C)O3)[C@H](C)O2)c2c(cc3c(c2O)C(=O)c2c(O)cccc2C3=O)[C@H]1C(=O)OC [Aclarubicin] | 23.1 µM | 9.2 µM | 112% | 122%
6 | CCCCCCCC(=O)CC[C@@H]1[C@@H](C/C=C\CCCC(=O)OC(C)C)[C@@H](O)C[C@H]1O [Unoprostone isopropyl ester] | > 45.8 µM | 18.3 µM | 42.2% | 
7 | Clc1cc(Cl)c(OCC#CI)cc1Cl [Haloprogin] | 25.9 µM | 20.6 µM | 93.8% | 89.7%
8 | C=C1C[C@H]2[C@@H]3C=C(C)C4=CC(=O)CC[C@]4(C)[C@H]3CC[C@]2(C)[C@@]1(OC(C)=O)C(C)=O [Melengestrol acetate] | > 45.8 µM | 18.3 µM | 40.9% | 
9 | O=c1[nH]c2ccccc2n1C1CCN(CCCC(c2ccc(F)cc2)c2ccc(F)cc2)CC1 [Pimozide] | 18.3 µM | 20.6 µM | 109% | 102%
10 | c1cnc2cc3c(cc2n1)[C@@H]1CNC[C@H]3C1 [Varenicline tartrate] | > 45.8 µM | 29.1 µM | 80.4% | 
11 | CCOc1ccc2nc3cc(N)ccc3c(N)c2c1 [Ethacridine lactate hydrate] | 18.3 µM | 29.1 µM | 50.6% | 54.4%
12 | O=C1c2c(O)ccc(O)c2C(=O)c2c(NCCNCCO)ccc(NCCNCCO)c21 [Mitoxantrone] | 2.31 µM | 2.06 µM | 96.4% | 90.7%
13 | CC(C)OC(=O)CCC/C=C\C[C@@H]1[C@@H](/C=C/[C@@H](O)COc2cccc(C(F)(F)F)c2)[C@H](O)C[C@@H]1O [Travoprost] | 14.6 µM | 20.6 µM | 96.5% | 87.4%
14 | CCCCCCCCCCCCCCCC[N+](C)(C)Cc1ccccc1 [Benzylhexadecyldimethylammonium chloride] | 18.3 µM | 18.3 µM | 129% | 128%

Now from value to molecule, other results behind:

Row | IC50 cell viability (HCT116 [2]; ICRF193 0 nM) | IC50 cell viability (HCT116 [2]; ICRF193 200 nM) | SMILES | efficacy (HCT116 [1]; ICRF193 200 nM) | efficacy (HCT116 [1]; ICRF193 0 nM)
15 | > 45.8 µM | 10.3 µM | COC(=O)c1ccc2c(c1)NC(=O)/C2=C(\Nc1ccc(N(C)C(=O)CN2CCN(C)CC2)cc1)c1ccccc1 [Nintedanib] | 53.6% | 
16 | 31.6 µM | 35.5 µM | CN1CCN(CCCN2c3ccccc3Sc3ccccc32)CC1 [Perazine] | 95.2% | 86.5%
17 | 20.6 µM | 25.9 µM | CN1CCCC(CC2c3ccccc3Sc3ccccc32)C1 (stereo not given) [Metixene hydrochloride] | 94.6% | 109%
18 | 29.1 µM | 29.1 µM | CO[C@H]1/C=C/O[C@@]2(C)Oc3c(C)c(O)c4c(O)c(c(/C=N/N5CCN(C)CC5)c(O)c4c3C2=O)NC(=O)/C(C)=C\C=C\[C@H](C)[C@H](O)[C@@H](C)[C@@H](O)[C@@H](C)[C@H](OC(C)=O)[C@@H]1C [Rifampicin] | 44.1% | 44.2%
19 | 20.6 µM | 20.6 µM | CN1CCN(CC/C=C2/c3ccccc3Sc3ccc(S(=O)(=O)N(C)C)cc32)CC1 [THIOTHIXENE] | 126% | 112%
20 | 5.8 µM | 5.17 µM | CCOC(=O)Cn1cccc1-c1nc(-c2ccc(OC)cc2)c(-c2ccc(OC)cc2)s1 [Pamicogrel] | 86.7% | 89.1%
